Results as given in paper PMC12951562, “SH2scan: Mapping SH2 Domain-Ligand Binding Selectivity for Inhibitors and Degraders” (Journal of Medicinal Chemistry, 2026).
Where “and” joins values, the source holds several entries; their conditions need not be identical. Equal entries are not always repeated. Where two headings read alike, the source gives them in different places. Non-standard residues stand in square brackets, D forms with d. Residues, ends and D or L forms follow the SMILES beside them. *: point of attachment. pY = N[C@@H](Cc1ccc(OP(=O)(O)O)cc1)C(=O)O; Caffeoyl = O=C(/C=C/c1ccc(O)c(O)c1)*

Assays:
Assay in all cases: biochemical
Type in all cases: binding
[1] = molecular target: T1, FER (Homo sapiens, UniProt P16591); conditions: for percent of DMSO vehicle control at 10 µM / remaining activity at 10 µM: read-out: percent of DMSO vehicle control
T1 construct: the DNA-tagged SH2 domain concentrations used in this study were <0.1 nM; made in house; host or cells: HEK293 (transient transfection; unpurified extract)
T1 sequence (P16591 460-550 limits assumed): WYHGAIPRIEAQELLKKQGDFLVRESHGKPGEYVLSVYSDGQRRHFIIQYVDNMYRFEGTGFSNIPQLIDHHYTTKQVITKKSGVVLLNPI

[2] = molecular target: T2, SLP76 (Homo sapiens, UniProt Q13094); conditions: for remaining activity at 10 µM: read-out: percent of DMSO vehicle control
T2 construct: made in house; host or cells: HEK293 (transient transfection), unpurified extract
T2 sequence (Q13094 1-533): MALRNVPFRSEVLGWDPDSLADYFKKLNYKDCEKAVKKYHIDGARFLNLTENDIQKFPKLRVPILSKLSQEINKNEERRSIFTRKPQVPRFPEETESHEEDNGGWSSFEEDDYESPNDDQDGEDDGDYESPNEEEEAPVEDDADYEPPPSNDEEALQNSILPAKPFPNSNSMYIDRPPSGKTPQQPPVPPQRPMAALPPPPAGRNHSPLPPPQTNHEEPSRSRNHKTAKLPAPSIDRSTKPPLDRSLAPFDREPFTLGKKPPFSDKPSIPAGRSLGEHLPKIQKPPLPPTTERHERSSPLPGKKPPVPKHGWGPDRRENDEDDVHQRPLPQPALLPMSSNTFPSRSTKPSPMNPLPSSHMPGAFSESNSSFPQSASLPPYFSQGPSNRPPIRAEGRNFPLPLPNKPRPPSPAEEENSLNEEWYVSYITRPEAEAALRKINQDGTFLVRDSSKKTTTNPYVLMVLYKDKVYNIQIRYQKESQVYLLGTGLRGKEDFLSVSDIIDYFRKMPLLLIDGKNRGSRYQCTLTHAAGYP

[3] = molecular target: T3, STAP1 (Homo sapiens, UniProt Q9ULZ2); conditions: for remaining activity at 10 µM: read-out: percent of DMSO vehicle control
T3 construct: made in house; host or cells: HEK293 (transient transfection), unpurified extract
T3 sequence (Q9ULZ2 1-295): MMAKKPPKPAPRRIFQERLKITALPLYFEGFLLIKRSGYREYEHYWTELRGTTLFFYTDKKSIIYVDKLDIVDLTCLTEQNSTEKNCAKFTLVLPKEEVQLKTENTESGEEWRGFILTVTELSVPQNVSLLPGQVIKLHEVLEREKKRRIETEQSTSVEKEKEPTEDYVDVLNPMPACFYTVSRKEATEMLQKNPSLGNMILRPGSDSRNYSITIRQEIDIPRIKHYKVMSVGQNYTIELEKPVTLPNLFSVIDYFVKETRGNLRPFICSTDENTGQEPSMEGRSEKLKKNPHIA

[4] = molecular target: T4, STAT2 (Homo sapiens, UniProt P52630); conditions: for percent of DMSO vehicle control at 10 µM / remaining activity at 10 µM: read-out: percent of DMSO vehicle control
T4 construct: made in house; host or cells: HEK293 (transient transfection), unpurified extract
T4 sequence (P52630 whole entry): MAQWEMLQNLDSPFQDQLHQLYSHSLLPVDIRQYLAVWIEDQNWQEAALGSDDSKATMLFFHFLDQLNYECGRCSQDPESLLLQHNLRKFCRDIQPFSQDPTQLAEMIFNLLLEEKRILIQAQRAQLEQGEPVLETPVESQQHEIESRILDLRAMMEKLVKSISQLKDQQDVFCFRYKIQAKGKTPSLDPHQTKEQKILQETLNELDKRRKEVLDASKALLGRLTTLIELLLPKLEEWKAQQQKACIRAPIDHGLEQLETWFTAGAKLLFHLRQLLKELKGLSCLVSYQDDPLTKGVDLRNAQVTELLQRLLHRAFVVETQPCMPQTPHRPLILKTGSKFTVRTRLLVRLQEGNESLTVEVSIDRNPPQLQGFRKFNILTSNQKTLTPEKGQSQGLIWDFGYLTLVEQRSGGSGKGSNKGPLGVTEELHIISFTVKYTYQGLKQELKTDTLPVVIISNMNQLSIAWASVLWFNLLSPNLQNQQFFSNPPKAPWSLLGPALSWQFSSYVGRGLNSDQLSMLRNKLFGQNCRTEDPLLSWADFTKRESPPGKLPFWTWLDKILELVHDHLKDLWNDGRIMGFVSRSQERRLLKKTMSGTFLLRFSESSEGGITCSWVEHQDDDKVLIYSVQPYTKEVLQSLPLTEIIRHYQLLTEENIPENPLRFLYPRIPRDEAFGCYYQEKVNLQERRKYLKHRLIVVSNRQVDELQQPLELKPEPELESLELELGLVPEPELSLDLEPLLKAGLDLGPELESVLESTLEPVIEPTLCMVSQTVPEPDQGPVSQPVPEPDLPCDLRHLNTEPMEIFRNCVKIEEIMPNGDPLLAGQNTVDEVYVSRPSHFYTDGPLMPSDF

[5] = molecular target: T5, SOCS4 (Homo sapiens, UniProt Q8WXH5); conditions: for remaining activity at 10 µM: read-out: percent of DMSO vehicle control
T5 construct: made in house; host or cells: HEK293 (transient transfection), unpurified extract
T5 sequence (Q8WXH5 1-440): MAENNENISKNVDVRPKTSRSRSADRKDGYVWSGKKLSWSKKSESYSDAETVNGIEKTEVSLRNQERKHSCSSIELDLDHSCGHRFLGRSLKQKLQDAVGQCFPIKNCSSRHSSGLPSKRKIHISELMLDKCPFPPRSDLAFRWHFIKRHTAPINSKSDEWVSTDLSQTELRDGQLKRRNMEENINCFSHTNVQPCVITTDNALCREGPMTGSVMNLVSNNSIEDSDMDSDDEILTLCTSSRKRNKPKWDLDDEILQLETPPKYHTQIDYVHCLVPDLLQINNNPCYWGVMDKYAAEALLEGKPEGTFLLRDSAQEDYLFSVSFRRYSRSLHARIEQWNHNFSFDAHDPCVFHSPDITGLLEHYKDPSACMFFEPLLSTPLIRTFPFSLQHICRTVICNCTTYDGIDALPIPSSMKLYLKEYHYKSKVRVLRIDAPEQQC

[6] = molecular target: T6, SH2D1B (Homo sapiens, UniProt O14796); conditions: for remaining activity at 10 µM: read-out: percent of DMSO vehicle control
T6 construct: made in house; host or cells: HEK293 (transient transfection), unpurified extract
T6 sequence (O14796 1-132): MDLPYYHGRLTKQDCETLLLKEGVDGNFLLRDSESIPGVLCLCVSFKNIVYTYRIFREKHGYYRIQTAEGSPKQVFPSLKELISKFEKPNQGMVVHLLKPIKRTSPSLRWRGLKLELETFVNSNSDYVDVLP

[7] = molecular target: T7, MIST (Homo sapiens, UniProt Q7Z7G1); conditions: for percent of DMSO vehicle control at 10 µM / remaining activity at 10 µM: read-out: percent of DMSO vehicle control
T7 construct: the DNA-tagged SH2 domain concentrations used in this study were <0.1 nM; made in house; host or cells: HEK293 (transient transfection, unpurified extract)
T7 sequence (Q7Z7G1 309-419 limits assumed): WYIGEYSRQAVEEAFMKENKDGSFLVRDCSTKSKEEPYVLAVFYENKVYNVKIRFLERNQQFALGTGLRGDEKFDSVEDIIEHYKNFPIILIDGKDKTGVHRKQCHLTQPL

[8] = molecular target: T8, VAV2 (Homo sapiens, UniProt P52735); conditions: for remaining activity at 10 µM: read-out: percent of DMSO vehicle control
T8 construct: made in house; host or cells: HEK293 (transient transfection), unpurified extract
T8 sequence (P52735 1-878): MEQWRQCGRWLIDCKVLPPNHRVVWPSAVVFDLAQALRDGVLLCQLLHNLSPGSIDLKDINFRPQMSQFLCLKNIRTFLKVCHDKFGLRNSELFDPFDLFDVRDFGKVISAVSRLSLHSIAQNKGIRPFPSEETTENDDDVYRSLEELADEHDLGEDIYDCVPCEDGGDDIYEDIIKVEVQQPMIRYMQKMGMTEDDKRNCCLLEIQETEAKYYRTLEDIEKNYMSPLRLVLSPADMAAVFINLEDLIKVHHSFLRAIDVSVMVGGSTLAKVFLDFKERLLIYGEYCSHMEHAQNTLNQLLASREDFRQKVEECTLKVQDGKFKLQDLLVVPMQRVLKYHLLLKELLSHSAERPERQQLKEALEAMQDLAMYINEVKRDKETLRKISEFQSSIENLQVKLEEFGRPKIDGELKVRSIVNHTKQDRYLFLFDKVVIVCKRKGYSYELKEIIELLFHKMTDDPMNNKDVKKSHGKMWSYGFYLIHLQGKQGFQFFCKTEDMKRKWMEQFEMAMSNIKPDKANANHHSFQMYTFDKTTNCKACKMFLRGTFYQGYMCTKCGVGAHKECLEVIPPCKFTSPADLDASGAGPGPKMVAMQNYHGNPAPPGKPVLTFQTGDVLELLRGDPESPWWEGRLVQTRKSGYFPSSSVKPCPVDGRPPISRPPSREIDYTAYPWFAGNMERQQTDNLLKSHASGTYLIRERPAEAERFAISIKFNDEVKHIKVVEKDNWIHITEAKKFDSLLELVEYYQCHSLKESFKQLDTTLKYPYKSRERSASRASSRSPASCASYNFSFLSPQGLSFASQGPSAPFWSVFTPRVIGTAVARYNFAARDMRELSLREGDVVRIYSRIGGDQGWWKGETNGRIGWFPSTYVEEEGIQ

Row | Compound | percent of DMSO vehicle control at 10 µM [1] [%] | remaining activity at 10 µM [2] [%] | remaining activity at 10 µM [3] [%] | percent of DMSO vehicle control at 10 µM [4] [%] | remaining activity at 10 µM [5] [%] | remaining activity at 10 µM [6] [%] | percent of DMSO vehicle control at 10 µM [7] [%] | remaining activity at 10 µM [8] [%] | remaining activity at 10 µM ([1]; primary screen, 10 μM) [%] | remaining activity at 10 µM ([2]; primary screen, 10 μM) [%] | remaining activity at 10 µM ([3]; primary screen, 10 μM) [%] | remaining activity at 10 µM ([4]; primary screen, 10 μM) [%] | Kd ([5]; dose-response, read-out: KD) [nM] | remaining activity at 10 µM ([5]; primary screen, 10 μM) [%] | remaining activity at 10 µM ([6]; primary screen, 10 μM) [%] | remaining activity at 10 µM ([7]; primary screen, 10 μM) [%] | remaining activity at 10 µM ([8]; primary screen, 10 μM) [%] | Kd ([1]; dose-response, read-out: KD) [nM] | further results
1 | CC[C@H](C)[C@H](NC(=O)[C@H](CCC(=O)O)NC(=O)[C@H](CCC(=O)O)NC(=O)[C@H](Cc1ccc(OP(=O)(O)O)cc1)NC(C)=O)C(=O)N[C@@H](CCC(=O)O)C(N)=O [Ac-pYEEIE-NH2] (Ac-[pY]EEIE-NH2) | – | – | – | – | – | – | – | – | – | – | – | – | – | – | – | – | – | – | percent of DMSO vehicle control ([1]; primary screen, 10 μM): 37.4%; percent of DMSO vehicle control ([2]; primary screen, 10 μM): 42.0±2.1%; percent of DMSO vehicle control ([3]; primary screen, 10 μM): 101.0%; percent of DMSO vehicle control ([4]; primary screen, 10 μM): 53.6±1.3%; percent of DMSO vehicle control ([5]; primary screen, 10 μM): 32.2%; percent of DMSO vehicle control ([6]; primary screen, 10 μM): 47.1±1.3%; percent of DMSO vehicle control ([7]; primary screen, 10 μM): 55.1%; percent of DMSO vehicle control ([8]; primary screen, 10 μM): 49.5±2.8%
2 | CC(=O)N[C@@H](Cc1ccc(CP(=O)(O)O)cc1)C(=O)NC1(C(=O)N[C@@H](CC(N)=O)C(=O)NCCCc2c(O)ccc3ccccc23)CCCCC1 [CGP78850] | 136 ± 7.5 | 44.1 ± 5.3 | 113 ± 2.6 | 27.3 | 101 ± 1.6 | 77.3 ± 6.6 | 102 ± 2.3 | 50.4 ± 7.8 | – | – | – | – | – | – | – | – | – | – | KD ([4]; dose-response): No Hit
3 | CC[C@H](C)[C@H](NC(=O)[C@H](CCC(=O)O)NC(=O)[C@H](CCC(=O)O)NC(=O)[C@H](Cc1ccc(OP(=O)(O)O)cc1)NC(=O)/C=C/c1ccc(O)c(O)c1)C(=O)N[C@@H](CCC(=O)O)C(=O)O [Caffeic acid-pYEEIE] (Caffeoyl-[pY]EEIE-OH) | 0.8 ± 0.8 | 99.6 ± 4.7 | 77.9 ± 1 | 0 | 2.5 ± 0.1 | 12.9 ± 2.3 | 72.9 ± 1.4 | 0.5 ± 0.1 | – | – | – | – | – | – | – | – | – | – | Kd [1]: 62 ± 86 nM; Kd [4]: 3.6 ± 0.18 nM; Kd [5]: 1500 ± 810 nM; Kd [6]: 65 ± 14 nM; Kd [8]: 58 ± 40 nM
4 | O=C(CCl)Nc1cccc(CNC(=O)[C@H](Cc2ccc(OP(=O)(O)O)cc2)NC(=O)Cc2ccc(F)cc2)c1 [MN551] | – | – | – | – | – | – | – | – | 1.1 ± 0.2 | 116 | 84.3 ± 2.8 | 217 | 64 | 9.6 ± 3.9 | 63.2 ± 6.6 | 102 | 77.8 ± 4.8 | – | –
5 | NC(=O)CC[C@H](NC(=O)[C@@H]1CC[C@@H]2CCN(C(=O)CCCCCC#Cc3cccc4c3CN(C3CCC(=O)NC3=O)C4=O)C[C@H](NC(=O)c3cc4cc(C(F)(F)P(=O)(O)O)ccc4[nH]3)C(=O)N21)C(=O)NC(c1ccccc1)c1ccccc1 (stereo partly drawn) [SD-36] | 74.4 ± 18.6 | 66.5 ± 0.8 | 79.9 ± 5.8 | 0.1 ± 1.3 | 30 ± 17.2 | 99.6 ± 1.3 | 104 ± 8.6 | 117 ± 1.5 | – | – | – | – | – | – | – | – | – | – | Kd ([4]; dose-response): 450 nM and 454 nM; Kd ([5]; dose-response): 5900 nM
6 | CC(=O)N1CC[C@H]2CC[C@@H](C(=O)N[C@@H](CCC(N)=O)C(=O)NC(c3ccccc3)c3ccccc3)N2C(=O)[C@@H](NC(=O)c2cc3cc(C(F)(F)P(=O)(O)O)ccc3[nH]2)C1 [SI-109] | 107 | 61.9 | 104 | 100 | 123 | 223 | 104 | 119 | – | – | – | – | – | – | – | – | – | – | Kd [4]: 1300 ± 1300 nM
7 | C/C(=C\C(=O)N[C@H](C(=O)N1CCC[C@H]1C(=O)N(c1ccccc1)c1ccc(I)cc1)C(C)(C)C)c1ccc(OP(=O)(O)O)cc1 [STAT6-IN-1] | – | – | – | – | – | – | – | – | 8.5 ± 0.1 | 50.8 ± 0.4 | 65.6 ± 5.1 | 35.1 ± 16.6 | 13 | 0 | 49.6 ± 1.2 | 88.7 ± 5.9 | 79.9 ± 1.6 | 1400 ± 71 | –
8 | CC(C)(C)[C@H](NC(=O)/C=C/c1ccc(OP(=O)(O)O)cc1)C(=O)N1CCC[C@H]1C(=O)N(c1ccccc1)c1ccc(I)cc1 [STAT6-IN-3] | – | – | – | – | – | – | – | – | 10.7 ± 34 | 93.6 ± 30.3 | 76.9 ± 9.2 | 60.3 ± 12.5 | 10 | 0 | 46 ± 22.7 | 102 ± 8.1 | 87.5 ± 11.3 | 8000 ± 8700 | Kd ([4]; dose-response, read-out: KD): 510 ± 83 nM
9 | O=C(COc1ccc2cc(C(=O)Nc3ccccc3)ccc2c1)NCc1ccc(OP(=O)(O)O)c(OP(=O)(O)O)c1 [Stafib-1] | – | – | – | – | – | – | – | – | 10.8 | 97.5 ± 31 | 92 ± 6.8 | 153 | 3900 ± 870 | 25.5 ± 12.4 | 62.9 ± 9.5 | 96.8 ± 9.3 | 95.8 ± 29.1 | 1900 | Kd ([4]; dose-response, read-out: KD): 9300 ± 4300 nM
